The target of the assay is T1, connexin 43 (Cx43) hemichannel (Homo sapiens, UniProt P17302).
T1 construct: gene GJA1; human Cx43 tagged with GFP (hCx43-GFP)
The assay is described as follows: TO-PRO-3 dye uptake in HeLa cells transfected with hCx43-GFP, Ca2+-free HBSS. The assay is classed as cell-based.

Molecules are shown by their SMILES.

T1 sequence (P17302 2-382): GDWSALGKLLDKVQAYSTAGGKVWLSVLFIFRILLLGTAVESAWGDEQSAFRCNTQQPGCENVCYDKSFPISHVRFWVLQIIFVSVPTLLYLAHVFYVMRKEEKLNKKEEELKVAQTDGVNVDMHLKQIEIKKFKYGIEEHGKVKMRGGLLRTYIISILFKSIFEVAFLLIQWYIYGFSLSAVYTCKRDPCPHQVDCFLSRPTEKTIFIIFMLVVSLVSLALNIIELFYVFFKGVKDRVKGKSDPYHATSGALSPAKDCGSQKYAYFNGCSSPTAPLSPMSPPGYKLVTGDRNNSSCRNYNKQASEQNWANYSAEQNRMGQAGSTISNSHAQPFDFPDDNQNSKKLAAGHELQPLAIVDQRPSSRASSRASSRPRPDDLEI

What is called IC50 is the concentration that inhibits the measured activity by half. High values mean a need for much substance, low ones inhibition by little substance. As for `COc1cc2c(cc1O)C[C@H]1c3c(cc(O)c(OC)c3-2)CCN1C` [boldine], the half-inhibitory concentration (IC50) stood at 12.5 µM.

The values above are taken from paper PMC12481613, “Boldine as a neuroprotective agent against motor neuron degeneration in models of amyotrophic lateral sclerosis” (Frontiers in Cellular Neuroscience, 2025).
